Measured values from patent US12649750B2, “Macrocyclic compounds, compositions, and methods of using thereof” (Sionna Therapeutics Inc., priority 2022, dated 2026).

Experiments:
NBD1 = biological target: T1, NBD1 (Homo sapiens, UniProt P13569); experiment: Aggregation analysis using differential static light scattering (DSLS), thermal stability of NBD1 (ΔTagg); format: binding; details: ΔTagg versus DMSO control, NBD1 0.2 mg/ml
T1 construct: Purified recombinant NBD1 was produced using previously described methods; made in house
T1 sequence (P13569 423-646 limits assumed): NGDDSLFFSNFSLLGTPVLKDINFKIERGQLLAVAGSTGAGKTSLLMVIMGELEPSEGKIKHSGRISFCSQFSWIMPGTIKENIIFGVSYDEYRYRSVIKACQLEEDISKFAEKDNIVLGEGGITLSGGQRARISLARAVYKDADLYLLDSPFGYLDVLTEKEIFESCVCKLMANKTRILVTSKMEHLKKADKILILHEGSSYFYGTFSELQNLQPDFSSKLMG
Method in brief: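 Read-out is ΔTagg: the aggregation temperature, taken at the inflection of the light-scattering curve, less the average of DMSO control wells. Recombinant NBD1 (0.2 mg/ml, pH7.6 buffer containing 2 mM ATP) with test compound was heated at 1° C. per minute up to 70° C.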

CFTR = biological target: T2, CFTR (Homo sapiens, UniProt P13569, DEL508-508); experiment: TECC24 AUC fold over DMSO @10 μM, CFTR-mediated transepithelial chloride transport in CF-HBE cells; format: cell-based; details: test agent AUC divided by DMSO vehicle AUC, primary CF-HBE cells, ΔF508 homozygous donor, 48 hours incubation
T2 construct: Primary human bronchial epithelial cells from a ΔF508 homozygous CF donor; host or cells: primary human bronchial epithelial cells (CF-HBE), ΔF508 homozygous donor
T2 sequence (P13569 with tags, fused parts or gaps DEL508-508): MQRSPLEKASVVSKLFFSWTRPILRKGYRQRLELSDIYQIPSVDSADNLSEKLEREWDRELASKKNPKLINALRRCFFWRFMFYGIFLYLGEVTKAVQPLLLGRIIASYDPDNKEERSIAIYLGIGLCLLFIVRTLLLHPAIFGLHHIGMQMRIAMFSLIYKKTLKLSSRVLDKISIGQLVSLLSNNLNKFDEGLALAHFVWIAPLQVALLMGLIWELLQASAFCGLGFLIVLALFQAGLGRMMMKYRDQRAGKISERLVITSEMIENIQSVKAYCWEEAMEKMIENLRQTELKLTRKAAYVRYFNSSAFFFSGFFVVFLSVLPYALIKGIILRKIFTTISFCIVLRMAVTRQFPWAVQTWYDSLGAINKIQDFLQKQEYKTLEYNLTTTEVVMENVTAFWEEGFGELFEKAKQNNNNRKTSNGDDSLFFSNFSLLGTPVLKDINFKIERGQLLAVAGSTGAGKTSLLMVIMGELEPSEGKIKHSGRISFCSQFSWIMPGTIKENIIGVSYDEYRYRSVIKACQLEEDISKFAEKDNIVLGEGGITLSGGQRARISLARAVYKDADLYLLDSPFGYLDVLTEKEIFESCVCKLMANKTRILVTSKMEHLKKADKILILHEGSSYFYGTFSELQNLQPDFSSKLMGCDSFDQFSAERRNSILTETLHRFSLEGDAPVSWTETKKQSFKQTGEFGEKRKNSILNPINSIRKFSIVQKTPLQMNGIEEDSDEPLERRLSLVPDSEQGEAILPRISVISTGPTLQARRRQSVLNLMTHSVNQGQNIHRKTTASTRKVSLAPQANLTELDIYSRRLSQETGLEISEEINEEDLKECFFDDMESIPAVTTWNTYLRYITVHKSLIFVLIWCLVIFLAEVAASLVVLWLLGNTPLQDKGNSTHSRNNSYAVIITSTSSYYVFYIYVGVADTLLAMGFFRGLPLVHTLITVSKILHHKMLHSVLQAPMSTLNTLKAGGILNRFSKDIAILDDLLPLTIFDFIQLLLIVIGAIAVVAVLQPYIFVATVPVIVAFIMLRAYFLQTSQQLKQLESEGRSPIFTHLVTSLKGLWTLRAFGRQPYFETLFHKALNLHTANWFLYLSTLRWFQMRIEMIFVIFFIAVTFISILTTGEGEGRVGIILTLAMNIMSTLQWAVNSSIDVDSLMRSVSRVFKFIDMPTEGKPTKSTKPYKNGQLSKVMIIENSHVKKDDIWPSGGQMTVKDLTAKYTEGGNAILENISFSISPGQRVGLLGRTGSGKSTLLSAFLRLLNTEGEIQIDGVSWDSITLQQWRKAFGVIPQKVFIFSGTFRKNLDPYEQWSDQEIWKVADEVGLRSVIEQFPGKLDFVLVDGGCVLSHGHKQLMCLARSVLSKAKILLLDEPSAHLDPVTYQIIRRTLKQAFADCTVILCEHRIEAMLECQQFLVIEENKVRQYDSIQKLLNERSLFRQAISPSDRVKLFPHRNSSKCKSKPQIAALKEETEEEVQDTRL
Method in brief: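 ΔF508-homozygous primary bronchial epithelial cells incubated 48 h at 36.5° C with compound (10 μM) in IL-13-containing medium, then TECC24 current-clamp recording in pH 7.4 Hepes saline with benzamil 10 μM, forskolin 10 μM, then CFTR inhibitor-172 20 μM. Equivalent Cl− current AUC between forskolin and inhibitor, expressed as fold over DMSO.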

Compound	DSLS 3D (100 μM ΔT) (NBD1)	TECC (AUC, 10 μM) (CFTR)
C[C@@H](Cc1cccc(C2(C)CCCC(C)(C)CS(=O)(=O)CCc3c(c(F)cc4[nH]ccc34)S(=O)(=O)c3ccc(F)c(c3)-c3nc2nn3C)n1)C(=O)O (single isomer, unassigned) [Compound 180A]	C (a value greater than 10 °C and less than or equal to 25 °C is marked “C”)	B (a value between 12-20 is marked “B”)
C[C@@H](Cc1cccc(C2(C)CCCC(C)(C)CS(=O)(=O)CCc3c(c(F)cc4[nH]ccc34)S(=O)(=O)c3ccc(F)c(c3)-c3nc2nn3C)n1)C(=O)O (single isomer, unassigned) [Compound 180B]	A (an ΔTagg value less than or equal to 5 °C is marked “A”)	A (a TECC value less than 12 is marked “A”)
C[C@H](Cc1cccc(C2(C)CCCC(C)(C)CS(=O)(=O)CCc3c(c(F)cc4[nH]ccc34)[S+]([O-])c3ccc(F)c(c3)-c3nc2nn3C)n1)C(=O)O (single isomer, unassigned) [Compound 181A]	B (a value above 5 °C and less than or equal to 10 °C is marked “B”)	A (a TECC value less than 12 is marked “A”)
C[C@H](Cc1cccc(C2(C)CCCC(C)(C)CS(=O)(=O)CCc3c(c(F)cc4[nH]ccc34)[S+]([O-])c3ccc(F)c(c3)-c3nc2nn3C)n1)C(=O)O (single isomer, unassigned) [Compound 181B]	A (an ΔTagg value less than or equal to 5 °C is marked “A”)	A (a TECC value less than 12 is marked “A”)
C[C@H](Cc1cccc(C2(C)CCCC(C)(C)CS(=O)(=O)CCc3c(c(F)cc4[nH]ccc34)[S+]([O-])c3ccc(F)c(c3)-c3nc2nn3C)n1)C(=O)O (single isomer, unassigned) [Compound 181C]	A (an ΔTagg value less than or equal to 5 °C is marked “A”)	A (a TECC value less than 12 is marked “A”)
C[C@H](Cc1cccc(C2(C)CCCC(C)(C)CS(=O)(=O)CCc3c(c(F)cc4[nH]ccc34)[S+]([O-])c3ccc(F)c(c3)-c3nc2nn3C)n1)C(=O)O (single isomer, unassigned) [Compound 181D]	C (a value greater than 10 °C and less than or equal to 25 °C is marked “C”)	A (a TECC value less than 12 is marked “A”)
C[C@H](Cc1cccc(C2(C)CCCC(C)(C)CS(=O)(=O)CCc3c(c(F)cc4[nH]ccc34)Oc3cc(ccn3)-c3nc2nn3C)c1)C(=O)O (single isomer, unassigned) [Compound 184]	B (a value above 5 °C and less than or equal to 10 °C is marked “B”)	A (a TECC value less than 12 is marked “A”)
C[C@@H](Cc1cccc(C2(C)CCCC(C)(C)CS(=O)(=O)CCc3c(c(F)cc4[nH]ccc34)Oc3ccc(F)c(c3)-c3nc2nn3C)c1)C(=O)NO (single isomer, unassigned) [Compound 185]	C (a value greater than 10 °C and less than or equal to 25 °C is marked “C”)	B (a value between 12-20 is marked “B”)
C[C@@H](Cc1cccc(C2(C)CCCC(C)(C)CS(=O)(=O)CCc3c(c(F)cc4[nH]ccc34)Oc3ccc(F)c(c3)-c3nc2nn3C)c1)C(=O)N(C)O (single isomer, unassigned) [Compound 187]	B (a value above 5 °C and less than or equal to 10 °C is marked “B”)	A (a TECC value less than 12 is marked “A”)
CCONC(=O)[C@@H](C)Cc1cccc(C2(C)CCCC(C)(C)CS(=O)(=O)CCc3c(c(F)cc4[nH]ccc34)Oc3ccc(F)c(c3)-c3nc2nn3C)c1 (single isomer, unassigned) [Compound 188]	B (a value above 5 °C and less than or equal to 10 °C is marked “B”)	B (a value between 12-20 is marked “B”)
CC(C)ONC(=O)[C@@H](C)Cc1cccc(C2(C)CCCC(C)(C)CS(=O)(=O)CCc3c(c(F)cc4[nH]ccc34)Oc3ccc(F)c(c3)-c3nc2nn3C)c1 (single isomer, unassigned) [Compound 189]	B (a value above 5 °C and less than or equal to 10 °C is marked “B”)	B (a value between 12-20 is marked “B”)
Cn1nc2nc1-c1cc(ccc1F)Oc1c(F)cc3[nH]ccc3c1CCS(=O)(=O)CC(C)(C)CCCC2(C)c1cccc(CC2CC(=O)N(O)C2=O)c1 (single isomer, unassigned) [Compound 195A, 3-[[3-(22,28-difluoro-3,6,10,10-tetramethyl-12,12-dioxo-24-oxa-12λ6-thia-3,4,19,30-tetrazapentacyclo[23.3.1.12,5.015,23.016,20]triaconta-1(29),2(30),4,15,17,20,22,25,27-nonaen-6-yl)phenyl]methyl]-1-hydroxy-pyrrolidine-2,5-dione]	C (a value greater than 10 °C and less than or equal to 25 °C is marked “C”)	C (a value between 20 and 80 is marked “C”)
Cn1nc2nc1-c1cc(ccc1F)Oc1c(F)cc3[nH]ccc3c1CCS(=O)(=O)CC(C)(C)CCCC2(C)c1cccc(CC2CC(=O)N(O)C2=O)c1 (single isomer, unassigned) [Compound 195B, 3-[[3-(22,28-difluoro-3,6,10,10-tetramethyl-12,12-dioxo-24-oxa-12λ6-thia-3,4,19,30-tetrazapentacyclo[23.3.1.12,5.015,23.016,20]triaconta-1(29),2(30),4,15,17,20,22,25,27-nonaen-6-yl)phenyl]methyl]-1-hydroxy-pyrrolidine-2,5-dione]	C (a value greater than 10 °C and less than or equal to 25 °C is marked “C”)	C (a value between 20 and 80 is marked “C”)
Cn1nc2nc1-c1cc(ccc1F)Oc1c(F)cc3[nH]ccc3c1CCS(=O)(=O)CC(C)(C)CCCC2(C)c1cccc(CC2CC(=O)NC2=O)c1 (single isomer, unassigned) [Compound 196A, 3-[[3-(22,28-difluoro-3,6,10,10-tetramethyl-12,12-dioxo-24-oxa-12λ6-thia-3,4,19,30-tetrazapentacyclo[23.3.1.12,5.015,23.016,20]triaconta-1(29),2(30),4,15,17,20,22,25,27-nonaen-6-yl)phenyl]methyl]pyrrolidine-2,5-dione]	C (a value greater than 10 °C and less than or equal to 25 °C is marked “C”)	A (a TECC value less than 12 is marked “A”)
Cn1nc2nc1-c1cc(ccc1F)Oc1c(F)cc3[nH]ccc3c1CCS(=O)(=O)CC(C)(C)CCCC2(C)c1cccc(CC2CC(=O)NC2=O)c1 (single isomer, unassigned) [Compound 196B, 3-[[3-(22,28-difluoro-3,6,10,10-tetramethyl-12,12-dioxo-24-oxa-12λ6-thia-3,4,19,30-tetrazapentacyclo[23.3.1.12,5.015,23.016,20]triaconta-1(29),2(30),4,15,17,20,22,25,27-nonaen-6-yl)phenyl]methyl]pyrrolidine-2,5-dione]	A (an ΔTagg value less than or equal to 5 °C is marked “A”)	A (a TECC value less than 12 is marked “A”)
C[C@@H](Cc1cccc([C@@]2(C)CCCC(C)(C)CS(=O)(=O)CCc3c(c(F)cc4[nH]ccc34)[S+]([O-])c3ccc(F)c(c3)-c3nc2nn3C)c1)C(=O)O (single isomer, unassigned) [Compound 204]	C (a value greater than 10 °C and less than or equal to 25 °C is marked “C”)	C (a value between 20 and 80 is marked “C”)
C[C@@H](Cc1cccc([C@@]2(C)CCCC(C)(C)CS(=O)(=O)CCc3c(c(F)cc4[nH]ccc34)[S+]([O-])c3ccc(F)c(c3)-c3nc2nn3C)c1)C(=O)O (single isomer, unassigned) [Compound 205]	B (a value above 5 °C and less than or equal to 10 °C is marked “B”)	A (a TECC value less than 12 is marked “A”)
C[C@H](Cc1cccc([C@@]2(C)CCCC(C)(C)CS(=O)(=O)CCc3c(c(F)cc4[nH]ccc34)[S+]([O-])c3ccc(F)c(c3)-c3nc2nn3C)c1)C(=O)O (single isomer, unassigned) [Compound 206A]	C (a value greater than 10 °C and less than or equal to 25 °C is marked “C”)	C (a value between 20 and 80 is marked “C”)
C[C@H](Cc1cccc([C@@]2(C)CCCC(C)(C)CS(=O)(=O)CCc3c(c(F)cc4[nH]ccc34)[S+]([O-])c3ccc(F)c(c3)-c3nc2nn3C)c1)C(=O)O (single isomer, unassigned) [Compound 206B]	B (a value above 5 °C and less than or equal to 10 °C is marked “B”)	A (a TECC value less than 12 is marked “A”)
Cn1nc2nc1-c1cc(ccc1F)[S+]([O-])c1c(F)cc3[nH]ccc3c1CCS(=O)(=O)CC(C)(C)CCC[C@]2(C)c1cccc(CC(=O)O)c1 (single isomer, unassigned) [Compound 209A]	B (a value above 5 °C and less than or equal to 10 °C is marked “B”)	A (a TECC value less than 12 is marked “A”)
Cn1nc2nc1-c1cc(ccc1F)[S+]([O-])c1c(F)cc3[nH]ccc3c1CCS(=O)(=O)CC(C)(C)CCC[C@]2(C)c1cccc(CC(=O)O)c1 (single isomer, unassigned) [Compound 209B]	C (a value greater than 10 °C and less than or equal to 25 °C is marked “C”)	C (a value between 20 and 80 is marked “C”)
